Read-outs that look alike come from different tables or passages of the source.
Legend:
Format in all cases: cell-based
[1] = target: T1, rat ASCT2 (Rattus norvegicus, UniProt D3ZJ25); test: Whole-cell patch-clamp recording of ASCT2-associated anion current in transfected HEK293 cells; conditions: for Km: apparent Km for the active compounds from anion current dose response, called Ki in text for the inhibitors L-DOPS and γ-FBP; for Imax, maximum currents relative to 1 mM alanine: whole-cell anion current, membrane potential 0 mV, internal 130 mM NaSCN and 10 mM alanine, negative = outward current (inhibitor)
T1 construct: The coding region of the cDNA was subcloned into the EcoRI site of the pBK-CMV vector; expressed in transfected cells; host or cells: HEK293 (human embryonic kidney), transient transfection, pBK-CMV vector
T1 sequence (D3ZJ25 1-555): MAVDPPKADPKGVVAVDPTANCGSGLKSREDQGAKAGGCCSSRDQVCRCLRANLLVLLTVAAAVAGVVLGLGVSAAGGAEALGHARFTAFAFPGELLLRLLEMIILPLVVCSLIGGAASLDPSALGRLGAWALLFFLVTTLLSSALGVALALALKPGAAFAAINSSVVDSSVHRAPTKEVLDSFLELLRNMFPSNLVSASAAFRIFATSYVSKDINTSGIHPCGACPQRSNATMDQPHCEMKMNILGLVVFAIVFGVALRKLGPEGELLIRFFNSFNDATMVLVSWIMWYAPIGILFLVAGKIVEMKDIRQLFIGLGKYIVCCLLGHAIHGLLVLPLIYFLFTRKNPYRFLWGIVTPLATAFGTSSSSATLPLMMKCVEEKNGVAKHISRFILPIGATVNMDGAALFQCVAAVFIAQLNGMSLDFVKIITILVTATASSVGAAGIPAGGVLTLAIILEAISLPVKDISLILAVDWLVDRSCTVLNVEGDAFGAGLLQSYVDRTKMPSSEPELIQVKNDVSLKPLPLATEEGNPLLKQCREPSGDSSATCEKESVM
Description: We used transporter-mediated anion current as a measure of transport/inhibition activity […] We have previously shown that anion current is a measure of transport activity, due to the kinetic coupling of transport and anion flux, and this fact is also well established for the homologous glutamate transporters, which have a much more rigorously determined pharmacology. Anion current is activated when the transporter visits certain states in the transport cycle, such as the fully Na^+/substrate occupied state (substrate-induced anion conductance), or the Na^+-bound state (leak conductance). Thus, transported substrates induce anion current and non-transported inhibitors block the leak anion current. […] Functional characterization by patch clamping is a powerful approach when combined with virtual screening that prioritizes molecules from large libraries, but precludes screening of large amounts of compounds due to its labor-intensive nature.
cDNA coding for rat ASCT2 was kindly provided by S. Bröer. The coding region of the cDNA was subcloned into the EcoRI site of the pBK-CMV vector (Stratagene). The cDNA construct was used to transiently transfect human embryonic kidney cells (HEK293, ATCC No. CGL 1573) with leptrime reagent (Polyplus, Ilkrich, France). Transfection was performed as detailed in the supplier’s instructions. Electrophysiological recordings were performed 24–48 h after transfection.
ASCT2-associated whole-cell currents were recorded with an Adams & List EPC7 amplifier (HEKA, Lambrecht, Germany) using voltage-clamp conditions. Open-tip electrode resistances were 2–3 MΩ and the series resistance (R S) was 5–8 MΩ. R S was not compensated in the recordings, as compensation had no effect on the magnitude of the observed currents. The extracellular bath solution contained (in mM): 140 NaMES, 2 MgGluconate2, 2 CaGluconate2, and 10 HEPES (MES = methanesulfonic acid, pH 7.4 / NaOH). The pipette solution contained (in mM): 130 NaSCN, 2 MgCl2, 10 EGTA, 10 HEPES, and 10 L-alanine/cysteine (pH 7.3 / NaOH). Using this intracellular solution, the transporters operate in the Na^+/alanine exchange mode. Here, external alanine is exchanged with internal alanine in the absence of net transport. The exchange mode is associated with the activation of an uncoupled anion current, which was used as an indirect measure of transport activity. The currents were low pass filtered at 3 kHz (EPC7 built-in filter) and digitized with a digitizer board (Digidata 1200, Axon Instruments, Foster City, CA, USA) at a sampling rate of 10–50 kHz (controlled by software, Axon PClamp7). All experiments were performed at room temperature. Rapid solution exchange was essentially performed as described previously. Briefly, substrates and inhibitors were applied to the ASCT2-expressing HEK293 cells with a quartz tube (350 μm tube diameter) positioned at a distance of ≈0.5 mm to the cell. The linear flow rate of the solutions emerging from the opening of the tube was approximately 5–10 cm/s.

[2] = test system: C8161 human melanoma cells; test: MTT cell viability assay; conditions: 5 mM
Method: (§1) Glutamine is a conditionally essential amino acid required for cancer cell growth, being used as fuel source for the TCA cycle, and a carbon and nitrogen source for macromolecule production. We therefore examined cell viability in the presence of chloroalanine (5 mM), AOC (5 mM) and γ-FBP (5 mM) using an MTT assay in C8161 cells (Methods).
Human melanoma cell line C8161 culture was performed as previously described. Media used was DMEM/F12 medium (Life Technologies) containing 5% (v/v) fetal bovine serum (FBS), penicillin-streptomycin solution (Sigma-Aldrich). Cells were maintained at 37°C in a fully humidified atmosphere containing 5% CO2. Inhibitors (chloroalanine, AOC and γ-FBP) were resuspended in H2O, with control cells treated with the appropriate concentrations of vehicle alone.
MTT (3–(4,5–dimethylthiazol–2–yl)–2,5–diphenyl […] bromide; Millipore) cell viability assay was performed as previously described. Briefly, C8161 cells (1 × 10^4/well) were seeded in a flat-bottomed 96–well plate, incubated overnight in media, prior to culture with or without each inhibitor. MTT solution (10 μL) was added to each well for 4 h, prior to addition of 100 μL of isopropanol/HCl solution. Solution was mixed thoroughly and plates immediately read at 570 nm/630 nm in a PolarStar plate reader (BMG). Results were plotted as percentages of the absorbance observed in control wells.

[3] = test system: C8161 human melanoma cells; test: Annexin V/propidium iodide apoptosis assay by flow cytometry; conditions: 5 mM, 48 hours
Method: as §1
Cells (5 × 10^5 per well) were seeded in 24 well plates, allowed to adhere overnight, and then incubated in the presence of 5 mM chloroalanine, AOC or γ-FBP for 48 hours. Cells were detached using Tryple and resuspended in 300 μL of binding buffer (HEPES-buffered PBS supplemented with 2.5 mM calcium chloride) with Annexin V-APC (BD) and incubated for 15 min in the dark at room temperature. Propidium iodide solution (5 μg/mL) was added, and the cells were analyzed using the BD LSRFortessa and FlowJo software.

Row | Ki ([1]; absence of alanine, read-out: apparent Ki in the absence of alanine) [µM] | Concentration down to which alanine activation is alleviated ([1]; alanine + compound) [µM] | Ki ([1]; alanine-induced currents (100 μM alanine), read-out: Ki in the presence of alanine) [µM] | Km [1] [µM] | Response relative to saturating [alanine] ([1]; outward current) | Imax, maximum currents relative to 1 mM alanine [1] | SMILES | Cell viability (MTT) [2] | Apoptosis (early Annexin V+PI-, late Annexin V+PI+) [3] | Anion current response / ligand character ([1]; whole-cell current, result in words)
1 | 87 ± 22 | ≥ 100 | 250 ± 75 | 87 ± 22 | -0.64 ± 0.13 | -0.64 ± 0.13 | O=C(O)C1CC(Cc2ccccc2F)CN1 (centres unmarked) [γ-FBP] | significantly inhibited cell viability | neither AOC nor γ-FBP led to a significant increase | 
2 |  |  |  | 220 ± 20 |  | 1.17 ± 0.13 | NC1(C(=O)O)COC1 | significantly inhibited cell viability | neither AOC nor γ-FBP led to a significant increase | 

Row | SMILES | Ki ([1]; absence of alanine, read-out: apparent Ki in the absence of alanine) [µM] | Concentration down to which alanine activation is alleviated ([1]; alanine + compound) [µM] | Ki ([1]; alanine-induced currents (100 μM alanine), read-out: Ki in the presence of alanine) [µM] | Km [1] [µM] | Response relative to saturating [alanine] ([1]; outward current) | Imax, maximum currents relative to 1 mM alanine [1] | Cell viability (MTT) [2] | Apoptosis (early Annexin V+PI-, late Annexin V+PI+) [3] | Anion current response / ligand character ([1]; whole-cell current, result in words)
3 | NC(CCl)C(=O)O (centres unmarked) [Chloroalanine] |  |  |  | 900 ± 120 |  | 1.28 ± 0.22 | significantly inhibited cell viability | significantly increased apoptosis | activated inwardly-directed anion currents

From publication PMC4596572, “Ligand Discovery for the Alanine-Serine-Cysteine Transporter (ASCT2, SLC1A5) from Homology Modeling and Virtual Screening” (PLoS Computational Biology, 2015)
